PubChem BioAssay AID1963965 (Molecular Pharmacology Branch, DTP, NCI, 2024)
Values joined by “and” are separate entries in the source; they are usually repeats but may differ in a detail not shown here. Equal values may be shown once. One block for each compound: values may come before it.

Test system: 996289-038-R-J1-PDC spheroid viability
Assay: Anticancer human tumor 996289-038-R-J1-PDC patient-derived colon adenocarcinoma cell line growth inhibition [PI3K]
Conditions: spheroids with HUVEC and MSC; for viability, T/C: stronger effect = lower value
How it was run: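 Multi-cell spheroids combine tumor cells with HUVEC and human MSCs, treated with targeted agents alone or with inavolisib, alpelisib, duvelisib or copanlisib. Concentrations fall in half-log steps from at or near clinical Cmax, or from 10 microM where Cmax is unknown; viability read-out.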

[1] = curve of first compound, second compound 0.00316 µM
[2] = curve of first compound, second compound 0.01 µM
[3] = curve of first compound, second compound 0.0316 µM
[4] = curve of first compound, second compound 0.1 µM
[5] = curve of first compound, second compound 0.316 µM
[6] = curve of first compound, second compound 1 µM
[7] = second compound 0.00316 µM, first compound 0.000316 µM
[8] = second compound 0.00316 µM, first compound 0.001 µM
[9] = second compound 0.00316 µM, first compound 0.00316 µM
[10] = second compound 0.00316 µM, first compound 0.01 µM
[11] = second compound 0.00316 µM, first compound 0.0316 µM
[12] = second compound 0.00316 µM, first compound 0.1 µM
[13] = second compound 0.01 µM, first compound 0.000316 µM
[14] = second compound 0.01 µM, first compound 0.001 µM
[15] = second compound 0.01 µM, first compound 0.00316 µM
[16] = second compound 0.01 µM, first compound 0.01 µM
[17] = second compound 0.01 µM, first compound 0.0316 µM
[18] = second compound 0.01 µM, first compound 0.1 µM
[19] = second compound 0.0316 µM, first compound 0.000316 µM
[20] = second compound 0.0316 µM, first compound 0.001 µM
[21] = second compound 0.0316 µM, first compound 0.00316 µM
[22] = second compound 0.0316 µM, first compound 0.01 µM
[23] = second compound 0.0316 µM, first compound 0.0316 µM
[24] = second compound 0.0316 µM, first compound 0.1 µM
[25] = second compound 0.1 µM, first compound 0.000316 µM
[26] = second compound 0.1 µM, first compound 0.001 µM
[27] = second compound 0.1 µM, first compound 0.00316 µM
[28] = second compound 0.1 µM, first compound 0.01 µM
[29] = second compound 0.1 µM, first compound 0.0316 µM
[30] = second compound 0.1 µM, first compound 0.1 µM
[31] = second compound 0.316 µM, first compound 0.000316 µM
[32] = second compound 0.316 µM, first compound 0.001 µM
[33] = second compound 0.316 µM, first compound 0.00316 µM
[34] = second compound 0.316 µM, first compound 0.01 µM
[35] = second compound 0.316 µM, first compound 0.0316 µM
[36] = second compound 0.316 µM, first compound 0.1 µM
[37] = second compound 1 µM, first compound 0.000316 µM
[38] = second compound 1 µM, first compound 0.001 µM
[39] = second compound 1 µM, first compound 0.00316 µM
[40] = second compound 1 µM, first compound 0.01 µM
[41] = second compound 1 µM, first compound 0.0316 µM
[42] = second compound 1 µM, first compound 0.1 µM
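Further: spheroids exposed to compounds for seven days before viability read.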
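Wherever viability, T/C is given: luminescence used as a proxy for viable cell amount; percent viability relative to DMSO vehicle control as 100%.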

IC50 [1]: > 100 nM | IC50 [2]: > 100 nM | IC50 [3]: > 100 nM | IC50 [4]: > 100 nM | IC50 [5]: > 100 nM | IC50 [6]: 79.6 nM
Compound: CC(=O)c1c(C)c2cnc(Nc3ccc(N4CCNCC4)cn3)nc2n(C2CCCC2)c1=O + CC(Nc1ccc2c(c1)OCCn1cc(N3C(=O)OCC3C(F)F)nc1-2)C(N)=O
viability, T/C [7]: 89.9% | viability, T/C [8]: 106% | viability, T/C [9]: 103% | viability, T/C [10]: 93.9% | viability, T/C [11]: 96.5% | viability, T/C [12]: 93.3% | viability, T/C [13]: 105% | viability, T/C [14]: 90.5% | viability, T/C [15]: 101% | viability, T/C [16]: 96.4% | viability, T/C [17]: 96.7% | viability, T/C [18]: 92% | viability, T/C [19]: 101% | viability, T/C [20]: 85.3% | viability, T/C [21]: 95.8% | viability, T/C [22]: 87.5% | viability, T/C [23]: 92.8% | viability, T/C [24]: 81.2% | viability, T/C [25]: 82.2% | viability, T/C [26]: 70% | viability, T/C [27]: 85.3% | viability, T/C [28]: 92.5% | viability, T/C [29]: 87.8% | viability, T/C [30]: 76.5% | viability, T/C [31]: 73% | viability, T/C [32]: 81.6% | viability, T/C [33]: 63.4% | viability, T/C [34]: 64.8% | viability, T/C [35]: 70.9% | viability, T/C [36]: 68.8% | viability, T/C [37]: 58.7% | viability, T/C [38]: 72.5% | viability, T/C [39]: 58.9% | viability, T/C [40]: 57.7% | viability, T/C [41]: 57.8% | viability, T/C [42]: 48.2%

IC50 (curve of compound): > 10000 nM and 8800 nM and 8700 nM
Compound: CC1(C)CCC(CN2CCN(c3ccc(C(=O)NS(=O)(=O)c4ccc(NCC5CCOCC5)c([N+](=O)[O-])c4)c(Oc4cnc5[nH]ccc5c4)c3)CC2)=C(c2ccc(Cl)cc2)C1
viability, T/C (compound 0.1 µM): 103% [middle of 4 runs] | viability, T/C (compound 0.316 µM): 101% [middle of 4 runs] | viability, T/C (compound 1 µM): 111% [middle of 4 runs] | viability, T/C (compound 3.16 µM): 112% [middle of 4 runs] | viability, T/C (compound 10 µM): 59.5% [middle of 4 runs]

IC50 (curve of compound): > 10000 nM
Compound: CNC(=O)c1ccc(N2C(=S)N(c3ccc(C#N)c(C(F)(F)F)c3)C(=O)C2(C)C)cc1F
viability, T/C (compound 0.0316 µM): 111% and 106% (2×) and 100% | viability, T/C (compound 0.1 µM): 97% [middle of 4 runs] | viability, T/C (compound 0.316 µM): 111% [middle of 4 runs] | viability, T/C (compound 1 µM): 113% [middle of 4 runs]

IC50 (curve of compound): > 100 nM
Compound: CC(=O)c1c(C)c2cnc(Nc3ccc(N4CCNCC4)cn3)nc2n(C2CCCC2)c1=O
viability, T/C (compound 0.000316 µM): 104% [middle of 4 runs] | viability, T/C (compound 0.001 µM): 96.8% [middle of 4 runs] | viability, T/C (compound 0.01 µM): 95.5% [middle of 4 runs] | viability, T/C (compound 0.0316 µM): 96% and 101% (2×) and 91.4% | viability, T/C (compound 0.1 µM): 87.6% [middle of 4 runs]

IC50 [1]: > 100 nM | IC50 [2]: > 100 nM | IC50 [3]: > 100 nM | IC50 [4]: > 100 nM | IC50 [5]: < 0.316 nM | IC50 [6]: < 0.316 nM
Compound: CC(=O)c1c(C)c2cnc(Nc3ccc(N4CCNCC4)cn3)nc2n(C2CCCC2)c1=O + COc1c(OCCCN2CCOCC2)ccc2c3n(c(=NC(=O)c4cnc(N)nc4)nc12)CCN3
viability, T/C [7]: 99.3% | viability, T/C [8]: 96.9% | viability, T/C [9]: 104% | viability, T/C [10]: 94.2% | viability, T/C [11]: 97.4% | viability, T/C [12]: 83.1% | viability, T/C [13]: 89.1% | viability, T/C [14]: 89.9% | viability, T/C [15]: 80.2% | viability, T/C [16]: 90.8% | viability, T/C [17]: 94.2% | viability, T/C [18]: 73% | viability, T/C [19]: 66.1% | viability, T/C [20]: 81.4% | viability, T/C [21]: 80.5% | viability, T/C [22]: 81.8% | viability, T/C [23]: 73.7% | viability, T/C [24]: 70.6% | viability, T/C [25]: 62.7% | viability, T/C [26]: 56% | viability, T/C [27]: 59.4% | viability, T/C [28]: 55% | viability, T/C [29]: 57.5% | viability, T/C [30]: 49.8% | viability, T/C [31]: 34.4% | viability, T/C [32]: 31.6% | viability, T/C [33]: 39.1% | viability, T/C [34]: 31.3% | viability, T/C [35]: 37.8% | viability, T/C [36]: 29.4% | viability, T/C [37]: 19.1% | viability, T/C [38]: 22% | viability, T/C [39]: 21.5% | viability, T/C [40]: 16.6% | viability, T/C [41]: 17.7% | viability, T/C [42]: 15.9%

IC50 (curve of compound): > 1000 nM
Compound: CCN1CCN(Cc2ccc(Nc3ncc(F)c(-c4cc(F)c5nc(C)n(C(C)C)c5c4)n3)nc2)CC1
viability, T/C (compound 0.00316 µM): 99.6% [middle of 4 runs] | viability, T/C (compound 0.01 µM): 91.2% [middle of 4 runs] | viability, T/C (compound 0.0316 µM): 94% [middle of 4 runs] | viability, T/C (compound 0.1 µM): 85.2% [middle of 4 runs] | viability, T/C (compound 0.316 µM): 85.7% [middle of 4 runs] | viability, T/C (compound 1 µM): 85.3% [middle of 4 runs]
